Measurements from US20170166981A1, “BIOMARKERS AND METHODS OF USE THEREOF” (THE TRANSLATIONAL GENOMICS RESEARCH INSTITUTE, priority 2011, published 2017).

Assays:
[1] = tested on: BT20 breast cancer cells; conditions: reactivation of epigenetically silenced ERBB4; cited from earlier work
[2] = tested on: metastatic triple negative breast cancer (mTNBC); assay: Clinical tumor response of metastatic/locally recurrent TNBC patients to prior and molecularly-selected therapy (TNBC personalized genomics trial); format: in vivo, human
Text: The secondary objective is to conduct a comprehensive evaluation of genetic mutations in TNBC that may accelerate the development of rational and precise therapeutics; and to evaluate patient's best response to molecularly-selected therapy.
A patient eligible for clinical trial inclusion in this study had to meet all of the following criteria: (1) has a metastatic or locally recurrent triple negative breast cancer and is scheduled for medically indicated surgical biopsy or resection of disease; (2) have measurable or evaluable (nonmeasurable) disease based on results generated by RECIST v 1.1 (Eisenhauera, 2009) presented after surgical biopsy/resection. Following surgical resection, if the tumor sample is found to be inadequate for comprehensive molecular analysis, the patient would be deemed ineligible and would be replaced; (3) has received at least 1 prior chemotherapeutic regimen for their metastatic or locally recurrent TNBC prior to initiating the molecularly-selected therapy. There is no limit on the prior therapy for TNBC. Intervening therapies were strongly recommended to be held off if possible from the time of biopsy to the completion of sequencing so as not to change the cancer under the selective pressure of treatment, so that the sequencing results would be reflective of the current cancer; (4) is >18 years of age; (5) has an expected survival of at least 6 months, as estimated by the treating oncologist; (6) has planned surgical resection (indicated for the medical care of the patient) that will yield a minimum fresh/frozen tumor sample of 1 cm×1 cm×1 cm that will be available for molecular profiling analysis; (6) is agreeable to having a blood sample (10-20mL) drawn and analyzed to compare their normal genetic profile to that of their tumor sample; (7) has signed the most recent Patient Informed Consent Form and a Patient Authorization Form.
A patient would be excluded from this study if she meets any of the following criteria: (1) has breast cancer other than metastatic or locally recurrent TNBC; and surgical resection of the recurrent TNBC will render the patient as “no evidence of disease” (NED), and thus to be replaced; (2) has a history of heart disease, other conditions that would prevent treatment with a standard chemotherapeutic agent; (3) has evidence of CNS involvement that is progressing or that requires radiation, resection or steroid therapy; (4) has a serious uncontrolled intercurrent medical or psychiatric illness, including serious infection; (5) is pregnant or nursing; (6) is unable to comply with requirements of study.
Generally, 14 patients with previously treated triple negative breast cancer were included in the clinical study (Table 11). Samples were collected for sequencing with the SOLiD™ system (Applied Biosystems, Carlsbad, Calif.), and the patients were treated according to what is found after CLIA certification of the target.
The baseline was measured at the beginning of the treatment, after 2 cycles (close to two months), 75% regression in primary lesion were observed (FIG. 11).
Through the deep molecular profiling study described herein, a series of somatic events within individual tumors were detected that have informed or may have predicted the effectiveness of targeted therapies for some patients. Table 21 provides key information on therapeutically actionable concepts and clinical outcomes in the patient cohort used for this example.

Q: With `Nc1ncn([C@H]2C[C@H](O)[C@@H](CO)O2)c(=O)n1` [5-aza-2′-deoxycytidine] as the molecule, how does the apoptosis [1] read?
A: The apoptosis was “increased apoptosis”.

Q: With `Cn1c(=O)n(-c2ccc(C(C)(C)C#N)cc2)c2c3cc(-c4cnc5ccccc5c4)ccc3ncc21` [BEX235] as the molecule, how does the Best results ([2]; Patient # 1, biomarker profile guided treatment (hit only one arm of what suggested MEK/AKT)) read?
A: Its Best results is “Stable Disease”.

Q: With `Cn1c(=O)n(-c2ccc(C(C)(C)C#N)cc2)c2c3cc(-c4cnc5ccccc5c4)ccc3ncc21` [BEZ235] as the molecule, how does the reduction in nodes ([2]; Patient 14) read?
A: The reduction in nodes was 21%.

Q: And the Best results ([2]; Patient # 3, biomarker profile guided treatment)?
A: The Best results was “Progressive Disease”.

Q: Which Best results ([2]; Patient # 4, biomarker profile guided treatment) does the source give for `C=C1C[C@@H]2CC[C@@]34C[C@H]5O[C@H]6[C@@H](O3)[C@H]3O[C@H](CC[C@@H]3O[C@H]6[C@H]5O4)CC(=O)C[C@@H]3[C@@H](OC)[C@@H](C[C@H](O)CN)O[C@H]3C[C@H]3O[C@@H](CC[C@@H]1O2)C[C@@H](C)C3=C` [Eribulin, eribulin] here?
A: The Best results was “Stable Disease”.

Q: With `NC(=O)c1ccc(I)c([N+](=O)[O-])c1` [Iniparib] as the molecule, how does the clinical response ([2]; patient mTNBC9 / TNBC-009 (DNA damage and double-strand break repair defects)) read?
A: The clinical response was “responsive”.
